Drawing on patent US8901118B2, “Compounds and methods for kinase modulation, and indications therefor” (Plexxikon Inc., priority 2010, dated 2014), this text covers IC50 for eight compounds.

A value given as a limit tells only on which side of the number the result lay.

In assay [1] the target is CYP3A4(BFC) (Homo sapiens, UniProt P08684). Briefly: CYP3A4(BFC) inhibition. The conditions noted are these: CYP3A4, substrate BFC; read-out: Cyp IC50 3A4(BFC). Format: in vitro ADME. The method, then:
(§1) CYP (Cytochrome P450) enzymes are the major drug metabolizing enzymes present in the liver. The inhibition of CYP enzyme activity (IC50) for each of CYP1A2, CYP2C19, CYP2C9, CYP2D6, CYP3A4(BFC) and CYP3A4(BQ) is determined for compounds, where inhibition of metabolism of a known substrate leads to a decrease in the fluorescence of the metabolized product. The fluorescence of the product is monitored as a function of compound concentration. Compounds are dissolved in DMSO to a concentration of 100 mM. These are diluted 1 μL into 82 μL of acetonitrile. An 11 μL aliquot of this solution is then added to 204 μL of cofactor mix (1.3% NADPH Regeneration system Solution A, 1.04% NADPH Regeneration system Solution B from BD Biosciences, 5% acetonitrile and 0.05% DMSO). These are then serially diluted 1:1 (160 μL to 160 μL co-factor mix) for a total of 10 points. A 10 μL aliquot of this final mixture is dispensed into 384 well assay plates and incubated for 10 minutes at 37° C. […] Assay plates are incubated at 37° C. (CYP1A2-15 min; CYP2C9-45 min; CYP2C19, 2D6 and 3A4-30 min) and read in a Tecan Safire 2 plate reader (CYP1A2, 2C19 and 3A4 409 ex/460 em; CYP2C9 and 2D6 409 ex/530 em). The signal versus compound concentration is used to determine the IC50. The enzymes and substrates for this assay are obtained from BD Biosciences.

The target in assay [2] is TrkA kinase (Homo sapiens, UniProt P04629). Put plainly: TrkA kinase biochemical activity assay (AlphaScreen). The conditions noted are these: 100 μM ATP; read-out: Biochemical Inhibition IC50 TrkA. The method, then:
In one assay the biochemical activity IC50 values are determined with respect to inhibition of TrkA kinase activity, where inhibition of phosphorylation of a peptide substrate is measured as a function of compound concentration. Compounds to be tested, dissolved in DMSO (1 μL), are added to a white 384-well plate (Costar #3705). Working stocks of TrkA kinase (UBI), biotin-(E4Y)10 substrate (Upstate Biotech, Cat#12-440), and ATP (Sigma, Cat#A-3377) are prepared in 25 mM Hepes pH 7.5, 10 mM MnCl2, 1 mM DTT, 0.01% BSA, and 0.01% Tween-20. All components are added to the 384-well plate for a final concentration of 1 ng/well TrkA, 30 nM biotin-(E4Y)10 and 100 μM ATP in a volume of 20 μL. Each sample is at 5% DMSO. The plate is shaken for 1 minute at 1200 rpm, spun for 1 minute at 1000 rpm, then incubated for 40 minutes at room temperature. Just before use, working stocks of donor and acceptor beads from the AlphaScreen PY20 Detection Kit (PerkinElmer, Cat#676601M) are prepared in 25 mM Hepes pH 7.5, 100 mM EDTA. 0.01% BSA. Donor Beads solution (Streptavidin beads) is added (5 μL) to each well to final bead concentration of 10 μg/mL. The plate is incubated at room temperature for 20 minutes. Acceptor Beads solution (PY20 coated beads) are then added to each well (5 μL) to a final concentration of bead at 10 μg/mL. The plates are incubated at room temperature for 60 minutes. Fluorescence signal is recorded on the Envision reader. Phosphorylated substrate results in binding of the PY20 antibody and association of the donor and acceptor beads such that signal correlates with kinase activity. The signal vs. compound concentration is used to determine the IC50. Similar assays are used for TrkB and Trk C kinase.
Background: Alpha assays give light when donor and acceptor beads are brought close together.

For assay [3], the target named is CYP2C19 (Homo sapiens, UniProt P33261). Briefly: CYP2C19 inhibition (fluorescent substrate CEC). Format: in vitro ADME. The settings on record: read-out: Cyp IC50 2C19. Here is the method:
as §1

For assay [4], the target named is CYP2C9 (Homo sapiens, UniProt P11712). Briefly: CYP2C9 inhibition (fluorescent substrate MFC). Format: in vitro ADME. The settings on record: read-out: Cyp IC50 2C9. Here is the method:
as §1

In assay [5] the target is CYP2D6 (Homo sapiens, UniProt P10635). Put plainly: CYP2D6 inhibition (fluorescent substrate AMMC). Format: in vitro ADME. The conditions noted are these: read-out: Cyp IC50 2D6. The method, then:
as §1

Chain of CYP2D6 (P10635 whole entry): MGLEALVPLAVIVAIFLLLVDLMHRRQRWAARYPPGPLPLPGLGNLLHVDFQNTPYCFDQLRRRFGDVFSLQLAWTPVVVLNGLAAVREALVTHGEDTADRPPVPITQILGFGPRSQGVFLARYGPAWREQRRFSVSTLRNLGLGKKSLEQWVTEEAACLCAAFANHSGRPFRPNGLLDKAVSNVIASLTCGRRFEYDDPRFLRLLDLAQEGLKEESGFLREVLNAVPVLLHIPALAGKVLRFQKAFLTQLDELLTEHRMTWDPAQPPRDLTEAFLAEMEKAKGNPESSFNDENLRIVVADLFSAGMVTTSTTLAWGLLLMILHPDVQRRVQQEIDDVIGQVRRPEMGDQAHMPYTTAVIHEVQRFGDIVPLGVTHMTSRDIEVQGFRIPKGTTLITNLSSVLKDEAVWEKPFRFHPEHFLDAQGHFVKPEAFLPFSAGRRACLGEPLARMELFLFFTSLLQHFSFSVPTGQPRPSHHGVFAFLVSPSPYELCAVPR
Chain of TrkA kinase (P04629 33-796): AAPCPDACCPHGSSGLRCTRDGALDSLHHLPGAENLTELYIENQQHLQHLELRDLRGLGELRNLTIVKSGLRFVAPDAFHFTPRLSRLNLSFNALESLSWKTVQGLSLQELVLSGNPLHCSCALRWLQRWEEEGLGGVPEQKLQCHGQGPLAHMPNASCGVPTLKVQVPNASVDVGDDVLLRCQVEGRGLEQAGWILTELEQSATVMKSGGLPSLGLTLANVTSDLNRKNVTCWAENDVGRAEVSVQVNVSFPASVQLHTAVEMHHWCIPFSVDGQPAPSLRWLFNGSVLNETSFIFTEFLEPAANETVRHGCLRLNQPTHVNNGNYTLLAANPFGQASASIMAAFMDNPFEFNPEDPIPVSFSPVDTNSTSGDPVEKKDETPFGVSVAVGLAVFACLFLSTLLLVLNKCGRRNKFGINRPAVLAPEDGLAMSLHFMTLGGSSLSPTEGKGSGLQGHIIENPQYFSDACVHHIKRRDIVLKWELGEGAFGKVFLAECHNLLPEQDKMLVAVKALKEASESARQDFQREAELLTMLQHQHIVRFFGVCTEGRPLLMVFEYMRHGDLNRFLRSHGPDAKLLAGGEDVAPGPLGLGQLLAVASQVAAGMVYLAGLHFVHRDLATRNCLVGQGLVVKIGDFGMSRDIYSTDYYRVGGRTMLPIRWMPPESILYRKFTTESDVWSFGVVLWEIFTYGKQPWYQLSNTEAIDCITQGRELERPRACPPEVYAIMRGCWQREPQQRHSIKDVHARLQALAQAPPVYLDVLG
Chain of CYP2C19 (P33261 whole entry): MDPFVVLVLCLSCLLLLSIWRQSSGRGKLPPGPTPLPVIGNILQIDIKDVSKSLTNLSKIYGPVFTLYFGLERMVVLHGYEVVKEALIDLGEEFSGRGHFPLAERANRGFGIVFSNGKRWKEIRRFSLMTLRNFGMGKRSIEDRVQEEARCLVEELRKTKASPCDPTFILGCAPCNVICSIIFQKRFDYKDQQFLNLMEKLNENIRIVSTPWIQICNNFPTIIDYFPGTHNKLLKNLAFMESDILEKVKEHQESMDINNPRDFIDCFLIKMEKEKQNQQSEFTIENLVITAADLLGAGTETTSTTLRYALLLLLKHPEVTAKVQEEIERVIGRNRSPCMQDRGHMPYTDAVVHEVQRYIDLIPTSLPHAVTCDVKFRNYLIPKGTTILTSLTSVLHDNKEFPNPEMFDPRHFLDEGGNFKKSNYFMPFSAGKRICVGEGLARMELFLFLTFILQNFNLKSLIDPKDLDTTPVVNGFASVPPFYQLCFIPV
Chain of CYP3A4(BFC) (P08684 whole entry): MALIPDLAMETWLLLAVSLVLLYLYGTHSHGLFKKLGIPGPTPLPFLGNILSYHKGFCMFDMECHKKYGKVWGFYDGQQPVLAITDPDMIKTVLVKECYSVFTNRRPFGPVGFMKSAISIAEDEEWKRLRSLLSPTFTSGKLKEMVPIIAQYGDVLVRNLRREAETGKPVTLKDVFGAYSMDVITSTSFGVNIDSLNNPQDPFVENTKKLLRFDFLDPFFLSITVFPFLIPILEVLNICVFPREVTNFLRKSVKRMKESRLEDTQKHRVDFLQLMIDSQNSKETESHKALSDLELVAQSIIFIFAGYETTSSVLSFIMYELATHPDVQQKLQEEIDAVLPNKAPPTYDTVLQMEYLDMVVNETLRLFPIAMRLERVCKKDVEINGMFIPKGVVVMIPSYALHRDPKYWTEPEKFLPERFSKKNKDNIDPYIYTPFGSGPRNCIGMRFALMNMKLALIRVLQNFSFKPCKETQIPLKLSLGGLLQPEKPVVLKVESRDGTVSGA
Chain of CYP2C9 (P11712 whole entry): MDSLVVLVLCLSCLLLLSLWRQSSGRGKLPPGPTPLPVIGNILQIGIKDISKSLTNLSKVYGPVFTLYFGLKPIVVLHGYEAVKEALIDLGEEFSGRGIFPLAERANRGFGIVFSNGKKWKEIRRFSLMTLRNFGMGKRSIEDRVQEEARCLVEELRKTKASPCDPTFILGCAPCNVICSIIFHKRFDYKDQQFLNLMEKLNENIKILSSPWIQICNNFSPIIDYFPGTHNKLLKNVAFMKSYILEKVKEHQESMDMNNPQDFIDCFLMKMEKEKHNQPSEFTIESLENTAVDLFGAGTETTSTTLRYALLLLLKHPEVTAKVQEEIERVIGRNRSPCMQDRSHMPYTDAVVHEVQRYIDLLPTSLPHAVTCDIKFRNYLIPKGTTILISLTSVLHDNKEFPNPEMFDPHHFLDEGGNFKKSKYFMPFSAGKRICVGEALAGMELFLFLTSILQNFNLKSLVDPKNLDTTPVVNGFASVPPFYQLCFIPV

With `COc1ccc(Nc2ccc(C(=O)c3c[nH]c4ncnc(NCc5ccc(C(F)(F)F)nc5)c34)c(F)n2)cn1` [Compound P-4071, [2-fluoro-6-[(6-methoxy-3-pyridyl)amino]-3-pyridyl]-[4-[[6-(trifluoromethyl)-3-pyridyl]methylamino]-7H-pyrrolo[2,3-d]pyrimidin-5-yl]methanone], the IC50 (commonly the concentration that gives 50% inhibition) in assay [1] is above 10 µM; in assay [2], below 0.01 µM; in assay [3], above 10 µM; in assay [4], above 10 µM; in assay [5], above 10 µM.

Consider `COc1ccc(Nc2ccc(C(=O)c3c[nH]c4ncnc(N[C@@H](C)c5ccc(F)cc5)c34)c(F)n2)cn1` [Compound P-4072, [2-fluoro-6-[(6-methoxy-3-pyridyl)amino]-3-pyridyl]-[4-[[(1S)-1-(4-fluorophenyl)ethyl]amino]-7H-pyrrolo[2,3-d]pyrimidin-5-yl]methanone], for which the IC50 in assay [1] is above 10 µM; in assay [2], below 0.1 µM; in assay [3], below 10 µM; in assay [4] it was 5 to 10 µM; in assay [5], 5 to 10 µM.

Turning to `COc1ccc(Nc2ccc(C(=O)c3c[nH]c4ncnc(NCC5CCCO5)c34)c(F)n2)cn1` (stereo not shown) [Compound P-4073, [2-fluoro-6-[(6-methoxy-3-pyridyl)amino]-3-pyridyl]-[4-(tetrahydrofuran-2-ylmethylamino)-7H-pyrrolo[2,3-d]pyrimidin-5-yl]methanone], the IC50 is above 10 µM in assay [1]; below 0.01 µM in assay [2]; 5 to 10 µM in assay [3]; above 10 µM in assay [4]; above 10 µM in assay [5].

Regarding `CCN1CCC(Nc2ncnc3[nH]cc(C(=O)c4ccc(Nc5ccc(OC)nc5)nc4F)c23)CC1` [Compound P-4074, [4-[(1-ethyl-4-piperidyl)amino]-7H-pyrrolo[2,3-d]pyrimidin-5-yl]-[2-fluoro-6-[(6-methoxy-3-pyridyl)amino]-3-pyridyl]methanone], the half-maximal inhibitory concentration (IC50) was above 10 µM in assay [1]; below 0.01 µM in assay [2]; 5 to 10 µM in assay [3]; above 10 µM in assay [4]; above 10 µM in assay [5].

For the compound `COc1ccc(Nc2ccc(C(=O)c3c[nH]c4ncnc(NC5CCCC5)c34)c(F)n2)cn1` [Compound P-4075, [4-(cyclopentylamino)-7H-pyrrolo[2,3-d]pyrimidin-5-yl]-[2-fluoro-6-[(6-methoxy-3-pyridyl)amino]-3-pyridyl]methanone], the IC50 in assay [1] is above 10 µM; in assay [2], below 0.01 µM; in assay [3] it was 5 to 10 µM; in assay [4] it was above 10 µM; in assay [5], above 10 µM.

On to `COc1ccc(Nc2ccc(C(=O)c3c[nH]c4ncnc(NC5CCC5)c34)c(F)n2)cn1` [Compound P-4076, [4-(cyclobutylamino)-7H-pyrrolo[2,3-d]pyrimidin-5-yl]-[2-fluoro-6-[(6-methoxy-3-pyridyl)amino]-3-pyridyl]methanone], for which the concentration for half-maximal inhibition (IC50) is above 10 µM in assay [1]; below 0.01 µM in assay [2]; 5 to 10 µM in assay [3]; above 10 µM in assay [4]; above 10 µM in assay [5].

With `CCC(CC)Nc1ncnc2[nH]cc(C(=O)c3ccc(Nc4ccc(OC)nc4)nc3F)c12` [Compound P-4077, [4-(1-ethylpropylamino)-7H-pyrrolo[2,3-d]pyrimidin-5-yl]-[2-fluoro-6-[(6-methoxy-3-pyridyl)amino]-3-pyridyl]methanone], the IC50 in assay [1] is above 10 µM; in assay [2] it was below 0.01 µM; in assay [3], 5 to 10 µM; in assay [4] it was above 10 µM; in assay [5], above 10 µM.

For the compound `CCC(C)Nc1ncnc2[nH]cc(C(=O)c3ccc(Nc4ccc(OC)nc4)nc3F)c12` (stereo not shown) [Compound P-4078, [2-fluoro-6-[(6-methoxy-3-pyridyl)amino]-3-pyridyl]-[4-(sec-butylamino)-7H-pyrrolo[2,3-d]pyrimidin-5-yl]methanone], the IC50 in assay [1] is above 10 µM; in assay [2], below 0.01 µM; in assay [3], above 10 µM; in assay [4], above 10 µM; in assay [5] it was above 10 µM.
